The record followed here is ChEMBL document CHEMBL3576836, “Bioactive Metabolites from the Fruits of Psoralea corylifolia” (J Nat Prod, 2015).

In one test the test system is A549. Nature of the test: Cytotoxicity against human A549 cells after 48 hrs by MTT assay. The note with it: A549, 48 h. It is filed as functional, cell-based. For orientation: Tetrazolium assays rely on reduction of a dye to a coloured formazan, in cell work by metabolically active cells.
Another test has as its system K562. Nature of the test: Cytotoxicity against human K562 cells after 48 hrs by MTT assay. Format: functional, cell-based. The note with it: K562, 48 h.
Test [1] has as its target T1, NAD-dependent protein deacetylase sirtuin-1 (Homo sapiens) (UniProt Q96EB6).
T1 sequence (whole entry): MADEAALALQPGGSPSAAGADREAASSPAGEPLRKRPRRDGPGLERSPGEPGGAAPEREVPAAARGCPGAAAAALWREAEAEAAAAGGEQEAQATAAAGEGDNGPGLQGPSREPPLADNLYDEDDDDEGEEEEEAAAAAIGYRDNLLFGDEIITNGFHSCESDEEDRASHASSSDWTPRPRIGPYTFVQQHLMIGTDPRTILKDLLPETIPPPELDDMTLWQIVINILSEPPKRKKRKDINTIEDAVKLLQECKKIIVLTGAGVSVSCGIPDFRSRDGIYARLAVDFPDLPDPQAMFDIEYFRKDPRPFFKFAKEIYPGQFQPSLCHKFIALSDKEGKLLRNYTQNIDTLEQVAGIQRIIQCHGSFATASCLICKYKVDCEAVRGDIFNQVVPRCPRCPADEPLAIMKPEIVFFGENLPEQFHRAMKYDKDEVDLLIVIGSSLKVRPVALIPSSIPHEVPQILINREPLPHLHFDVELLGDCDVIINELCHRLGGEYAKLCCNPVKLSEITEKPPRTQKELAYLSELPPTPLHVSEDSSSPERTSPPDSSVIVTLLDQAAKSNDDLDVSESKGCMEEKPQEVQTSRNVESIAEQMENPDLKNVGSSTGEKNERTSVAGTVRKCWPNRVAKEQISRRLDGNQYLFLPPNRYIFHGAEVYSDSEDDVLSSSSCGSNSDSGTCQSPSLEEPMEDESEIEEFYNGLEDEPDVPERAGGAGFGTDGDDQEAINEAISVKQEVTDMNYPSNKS
Nature of the test: Increase in SIRT1 (unknown origin) deacetylation activity at 10 uM.

Test [2] is described as follows: Inhibition of Streptococcus mutans OMZ65 recombinant sortase A delta-40 mutant using Dabcyl-QALPETGEE-Edans as substrate after 1 hr by fluorescence spectrophotometry.
Test [3] deals with T1, NAD-dependent protein deacetylase sirtuin-1 (Homo sapiens). Nature of the test: Increase in SIRT1 (unknown origin) deacetylation activity.
Test [4] shares this target. Nature of the test: Stimulation of SIRT1 (unknown origin) expressed in HEK293 cells coexpressing p53-Luc assessed as decrease in p53 transcriptional activity. Format: cell-based.
The target is the same in test [5]. Nature of the test: Stimulation of SIRT1 (unknown origin) expressed in HEK293 cells assessed as increase in intracellular NAD+/NADH ratio. It is filed as cell-based.

Activity calls are given as the source filed them. No cut-off for these calls is given here.

Broadly, the IC50 is the concentration needed to halve the response being measured. Consider `CC(C)=CCc1cc2c(cc1O)O[C@H](c1ccc(O)cc1)CC2=O` [BAVACHIN], for which the IC50 in the test with A549 and in the test on K562 was more than 10 µM each time. Moreover, in test [1], the outcome was inactive.

Take `CC(C)(O)[C@@H]1Cc2cc3c(cc2O1)oc1c2ccc(O)cc2oc(=O)c31`: the half-maximal inhibitory concentration (IC50) in test [2] is 138 µM; in the test with A549 it was more than 10 µM; in the test with K562, more than 10 µM. Further, in test [1], the outcome was inactive.

Regarding `CC1(C)Oc2ccc(-c3coc4cc(O)ccc4c3=O)cc2[C@H](O)[C@@H]1O`, the IC50 in the test with A549 and in the test on K562 was more than 10 µM in each case. Further, in test [1], the outcome was inactive.

Turning to `CC1(C)Oc2ccc(-c3coc4cc(O)ccc4c3=O)cc2C[C@@H]1O`, the IC50 is 236 µM in test [2], more than 10 µM in the test with A549 and more than 10 µM in the test on K562. For the same compound, the result in test [1] was inactive.

As to `Oc1ccc(O)cc1` [HYDROQUINONE], the IC50 with A549 and in the test on K562 was more than 10 µM throughout. In addition, in test [1], the result was inactive.

On to Para-Hydroxymercuribenzoic acid, for which the half-inhibitory concentration (IC50) in test [2] came out at 118 µM.

Consider `O=Cc1ccc(O)c(O)c1` [PROTOCATECHUALDEHYDE], for which the IC50 in test [2] is 514 µM; with A549, more than 10 µM; in the test on K562, more than 10 µM. For the same compound, in test [1], the result was inactive.

As for `O=c1ccc2ccc3occc3c2o1` [ANGELICIN], the half-inhibitory concentration (IC50) in the test with A549 and in the test with K562 was more than 10 µM throughout. In addition, the outcome in test [1] was inactive.

In the case of `C=C[C@@](C)(/C=C/c1ccc(O)cc1)CCC1OC1(C)C` (stereo not given in full), the IC50 with A549 and in the test on K562 was more than 10 µM each time. Moreover, the result in test [1] was inactive.

As for `C=C[C@@](C)(/C=C/c1ccc(O)cc1)CCC(=O)C(=C)C`, the IC50 in the test with A549 and with K562 was more than 10 µM each time. The result in test [1] was inactive.

As to `CC(C)=CCc1cc(-c2coc3cc(O)cc(O)c3c2=O)ccc1O` [CORYLIN], the IC50 is 272 µM in test [2], more than 10 µM with A549 and more than 10 µM in the test with K562. In addition, the outcome in test [1] was inactive.

Consider `C=C(C)[C@@H]1Cc2cc3c(cc2O1)oc1c2ccc(O)cc2oc(=O)c31`, for which the IC50 in the test with A549 and with K562 was more than 10 µM each time. Besides, the outcome in test [1] was inactive.

`CC(C)(O)[C@H]1Oc2cc3oc4c5ccc(O)cc5oc(=O)c4c3cc2[C@@H]1O`: the 50% inhibitory concentration (IC50) in test [2] was 119 µM; with A549, more than 10 µM; in the test with K562 it was more than 10 µM. Also, the outcome in test [1] was inactive.

`CC(C)(O)c1cc2c3c(ccc2o1)C(=O)C[C@@H](c1ccc(O)cc1)O3`: the figures for the concentration for half-maximal inhibition (IC50) (in test [2]; with A549; with K562) were 135 µM, more than 10 µM and more than 10 µM, respectively. Besides, the outcome in test [1] was Active. For the same compound, the Activity entry in test [3], in test [4] and in test [5] was “Dose-dependent effect” in each case.

Regarding `CC(C)(O)[C@@H]1Oc2ccc(-c3coc4cc(O)ccc4c3=O)cc2[C@H]1O`, the IC50 in the test on A549 and with K562 was more than 10 µM in each case. Further, in test [1], the result was Active. For the same compound, the Activity result in test [3], in test [4] and in test [5] was “Dose-dependent effect” throughout.

For `CC(C)=CCc1cc(C(=O)/C=C/c2ccc(O)cc2)c(O)cc1O` [BROUSSOCHALCONE B], the IC50 in the test on A549 and in the test with K562 was more than 10 µM each time. Further, the outcome in test [1] was inactive.

On to `C=C(C)[C@@H]1Cc2cc3c(cc2O1)O[C@H](c1ccc(O)cc1)CC3=O`, for which the IC50 with A549 and in the test with K562 was more than 10 µM each time. In test [1], the result was inactive.

Consider `C=C(C)[C@H]1Cc2c(ccc3c2O/C(=C\c2ccc(O)c(O)c2)C3=O)O1`, for which the IC50 in the test with A549 and in the test on K562 was more than 10 µM throughout. Also, the outcome in test [1] was inactive.

Take `CC1(C)Oc2ccc(-c3coc4cc(O)ccc4c3=O)cc2[C@@H](O)[C@@H]1O`: the IC50 with A549 and with K562 was more than 10 µM each time. For the same compound, the result in test [1] was inactive.

As to `O=c1ccc2cc3ccoc3cc2o1` [PSORALEN], the IC50 in test [2] was 330 µM; with A549, more than 10 µM; with K562, more than 10 µM. For the same compound, the result in test [1] was inactive.

As to `CC(C)(O)[C@@H]1Cc2cc3c(cc2O1)O[C@H](c1ccc(O)cc1)CC3=O`, the IC50 in the test with A549 and in the test with K562 was more than 10 µM each time. Further, in test [1], the outcome was inactive.

`COc1cc2oc(-c3ccc(O)cc3)cc(=O)c2cc1CC=C(C)C` [BAVACHININ]: the IC50 with A549 and in the test with K562 was more than 10 µM each time. For the same compound, the outcome in test [1] was inactive.

As for `C=C[C@@](C)(/C=C/c1ccc(O)cc1)C/C=C/C(C)(C)O`, the IC50 in the test with A549 and in the test on K562 was more than 10 µM throughout. Also, in test [1], the result was inactive.

For the compound `C=C[C@@](C)(/C=C/c1ccc(O)cc1)CC[C@@H](O)C(C)(C)O`, the concentration for half-maximal inhibition (IC50) in the test on A549 and with K562 was more than 10 µM throughout. Besides, the outcome in test [1] was inactive.

Take `CC(C)=CCc1cc(-c2coc3cc(O)ccc3c2=O)ccc1O` [NEOBAVAISOFLAVONE]: the IC50 is 284 µM in test [2], more than 10 µM in the test on A549 and more than 10 µM in the test with K562. Besides, the result in test [1] was inactive.

`O=Cc1ccc(O)cc1` [4-HYDROXYBENZALDEHYDE]: the IC50 with A549 and in the test on K562 was more than 10 µM in each case. In test [1], the result was inactive.

For the compound `CC(C)=CCc1c(O)ccc(C(=O)/C=C/c2ccc(O)cc2)c1O` [ISOBAVACHALCONE], the concentration for half-maximal inhibition (IC50) with A549 and in the test with K562 was more than 10 µM each time. The outcome in test [1] was inactive.

Regarding `CC(C)(O)[C@H]1Cc2c(ccc3c2O/C(=C\c2ccc(O)c(O)c2)C3=O)O1`, the concentration for half-maximal inhibition (IC50) in test [2] is 209 µM; with A549 it was more than 10 µM; in the test on K562 it was more than 10 µM. In test [1], the outcome was Active. Besides, the Activity entry in test [3], in test [4] and in test [5] was “Dose-dependent effect” in each case.
